Assay [1] deals with Human dermal fibroblasts. Kind of assay: Influence of C-phycocyanin concentration and UV intensity on cell activity (Example 2). The format is cell-based. The conditions noted are these: UV 0-100 mJ/cm^2. The procedure:
(§1) A cell sample was prepared as follows: • 1. Human dermal fibroblasts and human skin keratinocytes purchased from Kurabo Industries Ltd. were used. A cell suspension (1 mL) stored in liquid nitrogen was thawed in a water bath (37° C.) to an extent that small ice pellets remained, and then diluted with 9 mL of warm medium. • 2. The diluted suspension was mixed gently and then transferred to a T75 flask and incubated overnight at 37° C. • 3. The next day, the medium was replaced with 10 mL of fresh medium. • 4. The medium was replaced periodically (once every 2 days for fibroblasts and once every 2 to 3 days for keratinocytes) and cell proliferation was continued. Meanwhile, the cells were observed using a microscope, and it was confirmed that the cells grew in the correct form. • 5. After the cells reached about 80% confluence, the cells were passaged. The cells were passaged by washing the cells once with 10 mL of warm PBS, adding 5 mL of warm trypsin to a T75 flask, covering the bottom of the flask with a trypsin solution, followed by aspirating at room temperature for 1 minute. • 6. The flask was allowed to stand in an oven at 37° C. for (maximum) 2 minutes for fibroblasts and (maximum) 7 minutes for keratinocytes. The cells were observed using a microscope and confirmed to be small and oval. • 7. Thereafter, the side of the T75 flask was lightly tapped to release the cells. […]

Assay [2] has as its system Human dermal fibroblasts. Kind of assay: Restoration of cell activity decreased by UV irradiation (Example 3). The class given is cell-based. The note with it: cells pre-irradiated 400 mJ/cm^2 without substance, then UV 0-200 mJ/cm^2 through 0.4% or 2% C-phycocyanin. The procedure: as §1

As to C-phycocyanin, the “cell activity (relative fluorescence intensity, AlamarBlue)” value is on record as “the decrease in cell activity was inhibited” in assay [1] (0.4% C-phycocyanin solution plate); “the cell activity was even enhanced” in assay [1] (2% C-phycocyanin solution plate, compared to no UV irradiation); “cell activity was recovered” in assay [2].

These data come from patent US12551418B2, “Cosmetic containing ultraviolet wavelength converting substance and medicinal agent” (Shiseido Company, Ltd., priority 2019, dated 2026).
